The results in this text go back to patent US10925851B2 (Regents of the University of Minnesota, priority 2018, dated 2021).

Values joined by “and” are separate entries in the source; they are usually repeats but may differ in a detail not shown here. Equal values may be shown once. Read-outs that look alike come from different tables or passages of the source. Where only a bound is given, the exact number is not on record here.

For one experiment, the target named is T1, Aminopeptidase N (APN) (Homo sapiens, UniProt P15144).
T1 construct: purchased R&D Systems
T1 sequence (P15144 whole entry): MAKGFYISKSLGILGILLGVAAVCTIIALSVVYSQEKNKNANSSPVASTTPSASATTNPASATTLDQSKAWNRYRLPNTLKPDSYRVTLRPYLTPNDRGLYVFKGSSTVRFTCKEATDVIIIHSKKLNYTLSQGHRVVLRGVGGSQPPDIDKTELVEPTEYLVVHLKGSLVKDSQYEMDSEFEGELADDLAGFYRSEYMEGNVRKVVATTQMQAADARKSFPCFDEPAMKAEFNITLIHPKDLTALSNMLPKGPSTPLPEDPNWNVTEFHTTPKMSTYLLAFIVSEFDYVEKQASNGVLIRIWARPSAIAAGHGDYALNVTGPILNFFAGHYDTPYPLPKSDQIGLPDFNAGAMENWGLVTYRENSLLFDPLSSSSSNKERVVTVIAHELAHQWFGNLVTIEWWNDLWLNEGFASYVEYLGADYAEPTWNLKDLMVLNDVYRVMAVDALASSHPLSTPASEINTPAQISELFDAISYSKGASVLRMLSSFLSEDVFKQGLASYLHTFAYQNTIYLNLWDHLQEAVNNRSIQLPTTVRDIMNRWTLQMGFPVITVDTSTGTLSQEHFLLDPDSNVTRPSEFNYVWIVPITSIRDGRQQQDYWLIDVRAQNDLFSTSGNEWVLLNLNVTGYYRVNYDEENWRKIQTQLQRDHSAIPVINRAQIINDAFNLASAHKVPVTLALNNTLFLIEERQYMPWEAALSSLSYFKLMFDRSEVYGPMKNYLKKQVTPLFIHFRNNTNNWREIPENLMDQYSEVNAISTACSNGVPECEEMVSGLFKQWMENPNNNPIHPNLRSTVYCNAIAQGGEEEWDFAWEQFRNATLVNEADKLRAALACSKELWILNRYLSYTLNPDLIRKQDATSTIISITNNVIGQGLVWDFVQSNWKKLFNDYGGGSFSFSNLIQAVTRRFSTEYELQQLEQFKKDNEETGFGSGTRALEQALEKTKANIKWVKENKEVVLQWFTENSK
Put plainly: Aminopeptidase N enzyme assay (Ala-AMC substrate, fluorescence). It is filed as biochemical. As to conditions: for IC50: dose response, 3x dilutions from 100 μM; for inhibition at 10 µM: inhibitor 10 μM, read-out: APN @ 10 μM (percent inhibition). The procedure: Single concentration studies at 10 μM: Aminopeptidase N assays were performed as described previously. Aminopeptidase N was purchased from R&D Systems. Amino-4-methylcoumarin (Ala-AMC) was purchased from Bachem. Briefly, 0.1 μg/μL APN was incubated with 1 μL of 1 mM inhibitor in 50 mM Tris buffer, pH 7.5, in 100 μL volume in a black 384-well plate in duplicate. The reaction was started with the addition of Ala-AMC substrate at a final concentration of 100 μM. The cleavage accumulation AMC was measured by exciting at 380 nm and reading the fluorescence at 460 nm on a Molecular Devices SpectraMax i3 plate reader for 20 min at room temperature. Percent inhibition is calculated in GraphPad Prism software using slopes in the linear range for each inhibitor at 10 μM.
Dose-Response Studies for APN: Aminopeptidase N enzyme assays were performed as described previously.^26 Briefly, 0.1 μg/μL APN was incubated with 1 μL inhibitor in 50 mM Tris buffer, pH 7.5, in 50 μL volume in a black 384-well plate in duplicate. Compounds were tested at 3× dilutions from 100 μM final concentration. The reaction was started with the addition of Ala-AMC substrate at a final concentration of 100 μM. The accumulation of AMC was measured by exciting at 380 nm and reading the fluorescence at 460 nm on a Molecular Devices SpectraMax i3 plate reader for 30 min at room temperature. Steady state velocities were used to determine IC50 values by fitting the velocities vs. inhibitor concentration to the sigmoidal concentration-response curve (variable slope) using GraphPad Prism.

A further experiment has as its target T2, Neprilysin (NEP) (Homo sapiens, UniProt P08473).
T2 construct: purchased Enzo Life Sciences
Put plainly: Neprilysin inhibition assay (Mca-[…](Dpn) FRET substrate). It counts as biochemical. To be noted: for IC50: dose response, 3x dilutions from 100 μM; for inhibition at 10 µM: inhibitor 10 μM, read-out: NEP @ 10 μM (percent inhibition). The procedure: Single concentration studies at 10 μM: Neprilysin inhibition assays were performed as described previously. The substrate Mca-[…](Dpn) and endopeptidase NEP were purchased from Enzo Life Sciences. […] Plate was mixed with a plate shaker at 1500 rpm for 30 seconds. The reaction was started with the addition of 6 μM of the FRET substrate and mixed for another 30 seconds at 1500 rpm. Mca fluorescence is quenched by Dpn until cleavage at Phe by NEP. The accumulation of the Mca was measured by exciting at 320 nm and reading the fluorescence at 405 nm on a Molecular Devices M5e plate reader for 40 minutes at room temperature. Percent inhibition is calculated in GraphPad Prism software using slopes in the linear range for each inhibitor at 10 μM.
Dose-Response Studies for NEP: Neprilysin inhibition assays were performed as described previously. The substrate Mca-[…](Dpn) and endopeptidase NEP were purchased from Enzo Life Sciences. Briefly, 0.5 nM NEP was incubated with 0.5 μL inhibitor. Compounds were tested at 3× dilutions from 100 μM final concentration in 50 mM HEPES pH 6.5 in 50 μL total volume in a black 384-well plate. Plate was mixed with a plate shaker at 1500 rpm for 30 seconds. The reaction was started with the addition of 6 μM of the FRET substrate and mixed for another 30 seconds at 1500 rpm. Mca fluorescence is quenched by Dpn until cleavage at Phe by NEP. The accumulation of the Mca was measured by exciting at 320 nm and reading the fluorescence at 405 nm on a Molecular Devices M5e plate reader for 40 minutes at room temperature. Steady state velocities were used to determine IC50 values by fitting the velocities vs. inhibitor concentration to the sigmoidal concentration-response curve (variable slope) using GraphPad Prism.

Experiment [1] has as its system mice. Put plainly: Combination therapy with morphine, isobolographic analysis in tail-flick assay. To be noted: for Dose Reduction Index (DRI) Morphine: in combination with tosedostat, 50% efficacy; for ED50: Mus musculus, sc. Background: In hot-plate and tail-flick tests a longer latency is read as antinociception.
For experiment [2], the system named is mice. Put plainly: Co-administration of opioid antagonist naloxone in hot-plate and tail-flick assays. As to conditions: naloxone s.c. 5 mg/Kg or i.c.v. 5 μg per mouse. It counts as in vivo, mouse. The procedure: Naloxone dissolved in saline was either administered subcutaneously (s.c.; dosage: 5 mg/Kg) via an injection to the interscapular skin, or it was given intracerebroventricularly (5 μg per mouse).
Naloxone is a broad-spectrum opioid receptor antagonist. It is known to interact with, mu- (μ-), delta- (δ-), and kappa- (κ-) opioid receptors, with highest affinity for the μ receptors. […] Naloxone dissolved in saline was delivered subcutaneously (s.c.) via an injection to the interscapular skin.
5 mg/Kg naloxone dissolved in saline was administered subcutaneously (s.c.) via an injection to the interscapular skin. Analgesic efficacy for various time-points was determined in hot-plate and tail-flick assays as detailed above.

T2 sequence (P08473 whole entry, species assumed): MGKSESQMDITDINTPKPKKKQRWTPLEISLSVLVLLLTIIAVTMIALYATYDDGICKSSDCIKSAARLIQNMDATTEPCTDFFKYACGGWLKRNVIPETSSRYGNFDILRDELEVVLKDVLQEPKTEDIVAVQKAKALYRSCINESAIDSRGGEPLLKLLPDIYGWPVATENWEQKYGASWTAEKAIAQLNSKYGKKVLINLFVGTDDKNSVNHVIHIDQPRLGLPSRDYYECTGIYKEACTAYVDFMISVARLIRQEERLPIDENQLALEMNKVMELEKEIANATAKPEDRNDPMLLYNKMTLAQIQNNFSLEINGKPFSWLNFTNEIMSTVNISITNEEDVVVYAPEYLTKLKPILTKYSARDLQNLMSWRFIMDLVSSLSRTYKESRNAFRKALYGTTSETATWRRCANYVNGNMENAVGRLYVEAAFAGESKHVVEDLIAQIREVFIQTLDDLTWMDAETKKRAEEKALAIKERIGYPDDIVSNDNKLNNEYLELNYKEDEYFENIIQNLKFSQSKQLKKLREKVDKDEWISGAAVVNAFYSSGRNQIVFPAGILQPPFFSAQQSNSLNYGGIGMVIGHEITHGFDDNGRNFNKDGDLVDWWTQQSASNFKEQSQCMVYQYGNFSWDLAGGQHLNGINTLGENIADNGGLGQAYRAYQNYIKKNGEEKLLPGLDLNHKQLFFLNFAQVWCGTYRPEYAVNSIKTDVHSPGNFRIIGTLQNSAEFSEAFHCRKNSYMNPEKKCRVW

One may read the IC50 as the concentration needed to halve the response being measured. Usually inhibition stands for the share of the control response that was lost under treatment. Consider `CNC(=O)[C@H](Cc1ccccc1)NC(=O)[C@H](CC(C)C)[C@H](CSc1cccs1)C(=O)NO` [Batimastat], for which, at Aminopeptidase N (APN), the “activity against APN (in words)” value was “inhibit both APN and NEP”; the IC50 is 0.21 µM and 0.212 µM. At Neprilysin (NEP), the “activity against NEP (in words)” value was “inhibit both APN and NEP”; the midpoint of inhibition, the IC50, lay at 4.48 µM; the inhibition at 10 µM is 60%.
On to `CC(C)C[C@H](NC(=O)[C@@H](O)[C@H](N)Cc1ccccc1)C(=O)O` [Bestatin], for which, on Aminopeptidase N (APN), the “activity against APN (in words)” value is reported as “inhibiting only APN” and the inhibition at 10 µM amounted to 77.6%. At Neprilysin (NEP), the “activity against NEP (in words)” value is on record as “no activity against NEP”, the IC50 was over 100 µM and the inhibition at 10 µM turned out to be 0%.
The ED50 is the dose at which the effect has come halfway, by size or by number of responders. On to `CN1CC[C@]23c4c5ccc(O)c4O[C@H]2[C@@H](O)C=C[C@H]3[C@H]1C5` [Morphine], for which the “Dose Reduction Index (DRI) Morphine” value with mice [1] (15 min) came out at 4.47; in the experiment on mice [1] (30 min) it was 1.96; in the experiment on mice [1] (45 min), 2.43; in the experiment with mice [1] (60 min), 17.0; in the experiment on mice [1] (60 min, listed as morphine) it was 17. In addition, the ED50 in the experiment with mice [1] (0.25 h, read-out: Morphine ED50 (±SEM)) was 6.29 ± 12.7 mg/kg; in the experiment on mice [1] (0.5 h, read-out: Morphine ED50 (±SEM)), 3.52 ± 7.2 mg/kg; with mice [1] (0.75 h, read-out: Morphine ED50 (±SEM)), 3.87 ± 2.04 mg/kg; with mice [1] (1 h, read-out: ED50, given alone), 2.5 to 3 mg/kg; in the experiment with mice [1] (1 h, read-out: Morphine ED50 (±SEM)) it was 30 ± 204 mg/kg.
Take `C=CCN1CC[C@]23c4c5ccc(O)c4O[C@H]2C(=O)CC[C@@]3(O)[C@H]1C5` [Naloxone]: the “effect on latency, naloxone only groups” value in the experiment with mice [2] is reported as “no effect on latency”.
In the case of `O=C(O)CNC(=O)C(CS)Cc1ccccc1` (centres unmarked) [Thiorphan], on Aminopeptidase N (APN), the “activity against APN (in words)” value is reported as “no activity against APN”, the IC50 was over 100 µM and the inhibition at 10 µM was 0%. For the same compound, on Neprilysin (NEP), the “activity against NEP (in words)” value is recorded as “inhibited only NEP” and the inhibition at 10 µM is 90%.
